Consider 18 molecules from the SangsterLogP compilation.

For orientation: logP means the decadic logarithm of the partition coefficient of the neutral form, usually between octanol and water. Read a high logP as a more lipophilic compound.

`CCCc1cccc(N2C(=O)CCC2=O)c1` yielded a lipophilicity (logP) of 1.52. As for `O=C1CCC(=O)N1c1cc(Br)cc(Br)c1`, the figure is 2.12; as for `O=C(O)c1cccc(F)c1`, 2.05.

For the molecule `Cc1cccc(Nc2ccccc2C(=O)O)c1`, the lipophilicity (logP) worked out at 4.74. Take `O=C1CCC(=O)N1c1cc(C(F)(F)F)cc(C(F)(F)F)c1`: the logP came to 2.25. As for `N#Cc1ccc(C(=O)O)cc1`, the figure is 1.55; as for `O=C1CCC(=O)N1c1cc(Cl)cc(Cl)c1Cl`, 2.44. For `Cc1cc(C)cc(N2C(=O)CCC2=O)c1`, the logP worked out at 1.16. As for `O=C(O)c1ccccc1Nc1cccc([N+](=O)[O-])c1`, the logP turned out to be 4.42. In turn, `O=C1CCC(=O)N1c1ccc(C(F)(F)F)cc1` gave a logP of 1.3. As for `O=C1CC(c2cccc(C(F)(F)F)c2)C(=O)N1` (stereo not drawn), the figure is 1.35; as for `O=C(c1ccccc1)c1ccc(O)cc1`, 2.91. As for `O=C1CCC(=O)N1c1cc(Cl)c(Cl)c(Cl)c1`, the figure is 2.92. Regarding `Cc1ccc(C(=O)O)cc1`, the log partition coefficient (logP) came to 2.43. `Oc1cccc(C(F)(F)F)c1` registered a logP of 2.61. As for `O=C1CCC(=O)N1c1cc(Cl)cc(Cl)c1`, the figure is 1.88; as for `O=C(O)c1cccc(Br)c1`, 2.83; as for `CC(=O)Oc1cccc(O)c1`, 1.26.
